The values that follow come from US10865238B1, “Complement factor H antibodies” (Duke University, priority 2017, dated 2020).

For one assay, the system named is H460 cells. Description: Calreticulin translocation to plasma membrane, H460. The class given is cell-based, human. The conditions noted are these: H460, NHS, compared to negative controls. On the procedure: (§1) H460 or A549 cells were treated for 2.5 hr with 1, medium; 2, NHS and CFH mAb (200 μg/ml); 3, NHS and IgG (200 μg/ml); or 4, NHS and Doxorubicin (25 μM).
(§2) In order to see if lung tumor cells undergoing CFH mAb-induced CDC send an ICD signal, human lung tumor cell lines (H460 and A549) were incubated in medium containing complement from the addition of NHS, and treated with CFH mAb, control antibody, or the known ICD inducer doxorubicin (Kepp et al. Oncoimmunology 2014; 3:e955691; Krysko et al. Nat Rev Cancer 2012; 12:860-75.). […] Total calreticulin in whole cell lysates was the same under all conditions.

A further assay concerns A549 cells. Description: Calreticulin translocation to plasma membrane, A549. In kind it is cell-based, human. The conditions noted are these: A549, NHS, compared to negative controls. The procedure:
as §1, §2

The target in assay [1] is T1, reduced Complement Factor H (CFH) (human, UniProt P08603 19-1231, disulfide bonds reduced with TCEP).
T1 construct: also called reduced CFH; CFH treated with TCEP
T1 sequence (P08603 19-1231 limits assumed): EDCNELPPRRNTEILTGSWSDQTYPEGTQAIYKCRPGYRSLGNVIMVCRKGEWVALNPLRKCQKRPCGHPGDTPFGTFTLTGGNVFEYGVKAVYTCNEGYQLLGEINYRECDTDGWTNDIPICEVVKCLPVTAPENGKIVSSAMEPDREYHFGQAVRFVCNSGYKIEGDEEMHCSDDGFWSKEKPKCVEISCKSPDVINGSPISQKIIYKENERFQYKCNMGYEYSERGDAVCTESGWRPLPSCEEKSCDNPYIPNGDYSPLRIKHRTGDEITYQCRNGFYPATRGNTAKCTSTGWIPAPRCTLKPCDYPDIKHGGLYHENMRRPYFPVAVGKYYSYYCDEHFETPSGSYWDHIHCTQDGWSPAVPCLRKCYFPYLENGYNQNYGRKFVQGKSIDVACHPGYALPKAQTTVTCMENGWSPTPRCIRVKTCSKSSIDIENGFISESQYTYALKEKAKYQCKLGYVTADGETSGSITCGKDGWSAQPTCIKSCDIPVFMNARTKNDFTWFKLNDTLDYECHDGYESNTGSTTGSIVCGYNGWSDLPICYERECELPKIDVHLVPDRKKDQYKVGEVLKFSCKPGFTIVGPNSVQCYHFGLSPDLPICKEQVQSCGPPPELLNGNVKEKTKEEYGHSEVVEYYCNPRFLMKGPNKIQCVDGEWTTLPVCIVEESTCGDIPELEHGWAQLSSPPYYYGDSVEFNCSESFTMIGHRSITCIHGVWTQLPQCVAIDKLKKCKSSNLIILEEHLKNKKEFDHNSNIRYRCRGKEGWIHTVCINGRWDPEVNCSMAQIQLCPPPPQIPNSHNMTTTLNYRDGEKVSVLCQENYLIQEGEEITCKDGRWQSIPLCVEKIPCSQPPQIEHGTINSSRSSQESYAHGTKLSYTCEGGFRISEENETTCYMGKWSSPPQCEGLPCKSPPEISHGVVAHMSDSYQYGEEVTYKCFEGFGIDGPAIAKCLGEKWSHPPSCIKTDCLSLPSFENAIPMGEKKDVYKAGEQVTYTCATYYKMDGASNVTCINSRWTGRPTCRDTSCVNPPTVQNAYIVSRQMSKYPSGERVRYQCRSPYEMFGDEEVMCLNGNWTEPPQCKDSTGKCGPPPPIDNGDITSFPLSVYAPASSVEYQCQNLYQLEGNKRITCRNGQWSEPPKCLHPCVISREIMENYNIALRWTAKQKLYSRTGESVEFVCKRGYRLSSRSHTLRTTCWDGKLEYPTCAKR
Description: western blot (immunoblot) on native and TCEP-reduced CFH. (In general: In western blotting, separated proteins are transferred to a membrane and probed.)
Description: Equimolar amounts of CFH and SCR19-20 proteins (~150 kDa and ~15 kDa, respectively) were treated with Tris-HCl (oxidized) or TCEP (reduced) prior to electrophoresis. The proteins were transferred to PVDF, and the membranes were placed into a "Surf-Blot" apparatus for immunoblot analysis. […] Binding was visualized with an antihuman IgG-HRP conjugate and chemiluminescent substrate, exposing the entire blot to one piece of film.

For `COc1cccc2c1C(=O)c1c(O)c3c(c(O)c1C2=O)C[C@@](O)(C(=O)CO)C[C@@H]3O[C@H]1C[C@H](N)[C@H](O)[C@H](C)O1` [doxorubicin, reference compound], the plasma membrane calreticulin entry in the assay with H460 cells and with A549 cells was “increases in plasma membrane calreticulin” in each case.

B1: Ab7955 (antibody, V domains shown)
VH: LVESGGGVVRPGRSLRLSCVASGFTFNAYGMHWVRQGPGKGLEWLAVISYEGKTVYYADSVKDRFTISRDNSRNTVSLHLNNLRGEDTAVYYCAKGSASAAVLQHWGQGTLVSVTS
VL: MTQSPGSLAVSLGSRATINCKSSRSLLYRSNNKNYLAWYQQKPGQSPRLLIYWASSRESGVPDRFSGGGSGTSFTLTISSLQAEDVAVYYCQQYFNPPWTFGQGTKVEIK
notes: Recombinant human mAb; also called CFH mAb 7955
For the molecule B1, the binding result in assay [1] is “binds”.
